This passage reports IC50 results from patent publication US9187424B1, “Aryl dihydropyridinones and piperidinone MGAT2 inhibitors” (Bristol-Myers Squibb Company, priority 2011, dated 2015).

The target in this experiment is Human MGAT-2 (Homo sapiens (Human), UniProt Q3SYC2). Description: MGAT LCMS Assay (human MGAT-2).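 Further: diolein product quantified by LC/MS with positive APCI, expressed as peak area ratio versus an internal standard, and this ratio used to derive IC50.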 The class given is biochemical. Particulars: human MGAT-2 membranes expressed in Sf9 cells; 2-oleoylglycerol and oleoyl-Coenzyme A; read-out: h-MGAT2 IC50 (nM) LCMS Assay.
Human MGAT-2, sequence (Q3SYC2 whole entry): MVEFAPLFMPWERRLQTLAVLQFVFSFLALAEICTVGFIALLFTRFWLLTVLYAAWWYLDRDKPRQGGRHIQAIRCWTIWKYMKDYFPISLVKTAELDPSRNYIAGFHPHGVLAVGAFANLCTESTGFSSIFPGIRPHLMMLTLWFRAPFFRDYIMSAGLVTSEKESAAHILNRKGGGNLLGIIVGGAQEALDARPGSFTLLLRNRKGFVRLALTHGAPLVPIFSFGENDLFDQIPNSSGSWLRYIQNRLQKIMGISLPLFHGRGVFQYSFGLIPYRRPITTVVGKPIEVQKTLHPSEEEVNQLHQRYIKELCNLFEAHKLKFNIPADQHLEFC
A word on the IC50: it is the concentration needed to halve the response being measured. As for `COc1ccc(NC(=O)C2=C(c3ccc(C)cc3)CC(C)(C(=O)NCCCC(F)(F)F)NC2=O)cc1` (stereo not drawn) [Example 102, N^5-(4-Methoxyphenyl)-2-methyl-6-oxo-4-p-tolyl-N^2-(4,4,4-trifluorobutyl)-1,2,3,6-tetrahydropyridine-2,5-dicarboxamide], the IC50 came to 1090 nM.
`Cc1ccc(C2=C(c3nn[nH]n3)C(=O)NC(c3ccc(C#CC4CCCCC4)cc3)(C(F)(F)F)C2)cc1` (stereo not drawn) [Example 291]: the IC50 came out at 178 nM.
Under `Cc1ccc(C2=C(NC(=O)c3ccc(F)cc3Cl)C(=O)NC(c3ccc(OCCCC(F)(F)F)cc3)(C(F)(F)F)C2)cc1` (stereo not drawn) [Example 170] stands 210 nM; under `Cc1ccc(C2=C(NC(=O)c3cnco3)C(=O)NC(c3ccc(OCCCC(F)(F)F)cc3)(C(F)(F)F)C2)cc1` (stereo not drawn) [Example 152], 252 nM.
In the case of `O=C1NC(c2ccc(OCCCCCC(F)(F)F)c(F)c2)(C(F)(F)F)CC(c2ccc(CC(F)(F)F)cc2)=C1c1nn[nH]n1` (stereo not drawn) [Example 306], the IC50 stood at 3 nM.
The figure for `Cc1ccc(C2=C(NC(=O)c3ccc(OC(F)(F)F)cc3)C(=O)NC(c3cnn(CCCCCC(F)(F)F)c3)(C(F)(F)F)C2)cc1` (stereo not drawn) [Example 200] is 37 nM.
As to `Cc1ccc(C2=C(C(=O)Nc3ccc(-c4nn[nH]n4)cc3)C(=O)NC(c3ccc(OCCC(F)(F)F)cc3)(C(F)(F)F)C2(F)F)cc1` (stereo not drawn) [Example 134], the half-inhibitory concentration (IC50) was found to be 168 nM.
The figure for `O=C1NC(c2ccc(OCCCC(F)(F)F)cc2)(C(F)(F)F)CC(c2ccc(C3CC3)cc2)=C1c1nn[nH]n1` (stereo not drawn) [Example 235] is 22 nM.
Take `O=C1NC(c2ccc(OCCC(F)(F)F)cc2)(C(F)(F)F)CC(c2ccc(OC(F)(F)F)cc2)=C1c1nn[nH]n1` (stereo not drawn) [Example 242]: the IC50 came out at 44 nM.
For `CCOc1ccc(C2=C(C#N)C(=O)NC(c3ccc(OCCCC(F)(F)F)cc3)(C(F)(F)F)C2)cc1Cl` (stereo not drawn) [Example 226], the IC50 came out at 206 nM.
The figure for `COc1ccc(NC(=O)C2=C(c3ccc(C)cc3)CC(C)(C(=O)NCC(C)C)NC2=O)cc1` (stereo not drawn) [Example 188] is 1520 nM.
As for `Cc1ccc(C2=C(NC(=O)c3cnccn3)C(=O)NC(c3ccc(OCCCC(F)(F)F)cc3)(C(F)(F)F)C2)cc1` (stereo not drawn) [Example 153], the concentration for half-maximal inhibition (IC50) came to 247 nM.
In the case of `CCCCCCC(=O)CNC(=O)C1(C)CC(c2ccc(C)cc2)=C(NC(=O)c2ccc(OC)cc2)C(=O)N1` (stereo not drawn) [Example 191], the IC50 stood at 797 nM.
The figure for `COCc1ccc(C2=C(c3nn[nH]n3)C(=O)NC(c3ccc(OCCCC(F)(F)F)cc3)(C(F)(F)F)C2)cc1` (stereo not drawn) [Example 202] is 89 nM.
Under `COc1ccc(C2=C(NC(=O)CS(C)(=O)=O)C(=O)NC(c3ccc(OCCCC(F)(F)F)cc3)(C(F)(F)F)C2)cc1` (stereo not drawn) [Example 252] stands 7 nM; under `Cc1ccc(C2=C(c3nn[nH]n3)C(=O)NC(c3ccc(OCCC4CC4)cc3)(C(F)(F)F)C2)cc1` (stereo not drawn) [Example 285], 4 nM.
Under `Cc1ccc(C2=C(C(=O)Nn3cnc([N+](=O)[O-])n3)C(=O)NC(c3ccc(OCCC(F)(F)F)cc3)(C(F)(F)F)C2)cc1` (stereo not drawn) [Example 132] stands 163 nM; under `Cc1ccc(C2=C(C(=O)Nc3cc(C)[nH]n3)C(=O)NC(c3ccc(OCCC(F)(F)F)cc3)(C(F)(F)F)C2)cc1` (stereo not drawn) [Example 131], 1050 nM; under `CCOCc1ccc(C2=C(c3nn[nH]n3)C(=O)NC(c3ccc(OCCCC(F)(F)F)cc3)(C(F)(F)F)C2)cc1F` (stereo not drawn) [Example 203], 59 nM.
Turning to `Cc1ccc(C2=C(n3cnnn3)C(=O)NC(c3ccc(OCCCC(F)(F)F)cc3)(C(F)(F)F)C2(F)F)cc1` (stereo not drawn) [Example 159], the IC50 is 16700 nM.
The figure for `CCOP(=O)(CC(=O)NC1=C(c2ccc(C)cc2)CC(c2ccc(OCCCC(F)(F)F)cc2)(C(F)(F)F)NC1=O)OCC` (stereo not drawn) [Example 282] is 3 nM; for `Cc1ccc(C2=C(NC(=O)c3cc(-c4ccccc4Cl)no3)C(=O)NC(c3ccc(OCCCC(F)(F)F)cc3)(C(F)(F)F)C2)cc1` (stereo not drawn) [Example 185] it is 121 nM; for `Cc1ccc(C2=C(c3cn[nH]n3)C(=O)NC(C#CCCc3ccccc3)(C(F)(F)F)C2)cc1` (stereo not drawn) [Example 198] it is 16 nM.
The figure for `COc1ccc(C(=O)NC2=C(c3ccc(C)cc3)CC(c3cnn(CCCCCC(F)(F)F)c3)(C(F)(F)F)NC2=O)cc1` (stereo not drawn) [Example 228] is 7 nM; for `Cc1ccc(C2=C(c3nn[nH]n3)C(=O)NC(c3ccc(OCCCC(F)(F)F)cc3)(C(F)(F)F)C2)c(F)c1` (stereo not drawn) [Example 286] it is 4 nM; for `Cc1ccc(C2=C(n3ccnc3)C(=O)NC(c3ccc(OCCCC(F)(F)F)cc3)(C(F)(F)F)C2)cc1` (stereo not drawn) [Example 114] it is 704 nM.
Under `O=C1NC(c2ccc(OCCCC(F)(F)F)cc2)(C(F)(F)F)CC(c2ccccc2)=C1c1nn[nH]n1` (stereo not drawn) [Example 97] stands 1200 nM; under `CCCCCCCC#CC1(C(F)(F)F)CC(c2ccc(C)cc2)=C(NC(=O)c2nnn[nH]2)C(=O)N1` (stereo not drawn) [Example 311], 3 nM; under `COc1ccc(C2=C(C#N)C(=O)NC(c3ccc(OCCCC(F)(F)F)cc3)(C(F)(F)F)C2)cc1Cl` (stereo not drawn) [Example 223], 112 nM.
For the compound `COc1ccc(C2=C(c3nn[nH]n3)C(=O)NC(C#CCCc3ccccc3)(C(F)(F)F)C2)cc1` (stereo not drawn) [Example 294], the 50% inhibitory concentration (IC50) was 84 nM.
Under `COc1ccc(C(=O)NC2=C(c3ccc(C)cc3)CC(c3ccc(OCCCC(F)(F)F)cc3)NC2=O)cc1` (stereo not drawn) [Example 214] stands 12 nM; under `Cc1ccc(C2=C(N)C(=O)N[C@@](c3ccc(OCCCC(F)(F)F)cc3)(C(F)(F)F)C2)cc1` [Example 104, (S)-3-Amino-4-p-tolyl-6-(4-(4,4,4-trifluorobutoxy)phenyl)-6-(trifluoromethyl)-5,6-dihydropyridin-2(1H)-one], 103 nM; under `COc1ccc(C2=C(c3nn[nH]n3)C(=O)NC(c3ccc(OCCCC(F)(F)F)cc3)(C(F)(F)F)C2)cc1` (stereo not drawn) [Example 193], 46 nM.
Under `CCNC(=O)NC1=C(c2ccc(OCC(F)F)cc2)CC(c2ccc(OCCCC(F)(F)F)cc2)(C(F)(F)F)NC1=O` (stereo not drawn) [Example 254] stands 170 nM; under `COc1ccc(C(=O)NC2=C(c3ccc(C)cc3)C(F)(F)C(c3ccc(OCCCCC(F)(F)F)cc3)(C(F)(F)F)NC2=O)cc1` (stereo not drawn) [Example 164], 162 nM; under `O=C1NC(c2ccc(OCCCC(F)(F)F)cc2)(C(F)(F)F)CC(c2ccc(OC(F)(F)F)cc2)=C1c1nn[nH]n1` (stereo not drawn) [Example 243], 14 nM.
Regarding `O=C1NC(c2ccc(OCCCC(F)(F)F)cc2)(C(F)(F)F)CC(c2ccc(CC(F)(F)F)cc2)=C1c1nn[nH]n1` (stereo not drawn) [Example 271], the IC50 was determined as 12 nM.
On to `Cc1ccc(C2=C(c3nn[nH]n3)C(=O)NC(c3ccc(C#CCC4CCCCC4)cc3)(C(F)(F)F)C2)cc1` (stereo not drawn) [Example 289], for which the IC50 was 19 nM.
For `CCCCCCCC#CC1(C(F)(F)F)CC(c2ccc(C)cc2)=C(c2cn[nH]n2)C(=O)N1` (stereo not drawn) [Example 195], the IC50 was 33 nM.
Under `Cc1ccc(C2=C(C(O)Nc3ccccc3)C(=O)NC(c3ccc(OCCCC(F)(F)F)cc3)(C(F)(F)F)C2)cc1` (stereo not drawn) [Example 115] stands 40 nM; under `COc1ccc(C2=C(c3nn[nH]n3)C(=O)NC(c3ccc(OCCCC(F)(F)F)cc3)(C(F)(F)F)C2)cc1` (stereo not drawn) [Example 244], 61 nM; under `N#CC1=C(c2ccc(Cl)c(F)c2)CC(c2ccc(OCCCC(F)(F)F)cc2)(C(F)(F)F)NC1=O` (stereo not drawn) [Example 220], 13 nM.
Under `Cc1ccc(C2=C(c3nn[nH]n3)C(=O)NC(c3ccc(C#CCOCc4ccccc4)cc3)(C(F)(F)F)C2)cc1` (stereo not drawn) [Example 290] stands 56 nM.
`Cc1ccc(C2=C(NC(=O)c3ccccc3Cl)C(=O)NC(c3ccc(OCCCC(F)(F)F)cc3)(C(F)(F)F)C2)cc1` (stereo not drawn) [Example 168]: the IC50 was 113 nM.
Under `CCn1nnc(C2=C(c3ccc(C)cc3)CC(c3ccc(OCCCC(F)(F)F)cc3)(C(F)(F)F)NC2=O)n1` (stereo not drawn) [Example 9, 3-(2-Ethyl-2H-tetrazol-5-yl)-4-p-tolyl-6-(4-(4,4,4-trifluorobutoxyl)phenyl)-6-(trifluoromethyl)-5,6-dihydropyridin-2(1H)-one] stands 121 nM; under `CCCCCCCn1ccc(C2(C)CC(c3ccc(C)cc3)=C(C#N)C(=O)N2)n1` (stereo not drawn) [Example 109, 6-(1-Heptyl-1H-pyrazol-3-yl)-6-methyl-2-oxo-4-p-tolyl-1,2,5,6-tetrahydropyridine-3-carbonitrile], 39 nM; under `Cc1ccc(C2=C(c3nn[nH]n3)C(=O)NC(c3ccc(OCCCCC(F)(F)F)cc3F)(C(F)(F)F)C2)cc1` (stereo not drawn) [Example 278], 2 nM.
`Cc1ccc(C2=C(C#N)C(=O)NC(c3cnn(CCCCC(F)(F)F)c3)(C(F)(F)F)C2)cc1` (stereo not drawn) [Example 227]: the half-maximal inhibitory concentration (IC50) stood at 63 nM.
The figure for `Cc1ccc(C2=C(C#N)C(=O)NC(c3ccc(OCCCC(F)(F)F)cc3)(C(F)(F)F)C2)cc1C` (stereo not drawn) [Example 217] is 118 nM; for `Cc1ccc(C2=C(NC(=O)c3cccc(Cl)c3)C(=O)NC(c3ccc(OCCCC(F)(F)F)cc3)(C(F)(F)F)C2)cc1` (stereo not drawn) [Example 169] it is 421 nM; for `Cc1cccc(C2=C(c3nn[nH]n3)C(=O)NC(c3ccc(OCCCC(F)(F)F)cc3)(C(F)(F)F)C2)c1` (stereo not drawn) [Example 96] it is 1430 nM.
With `CCOc1ccc(C2=C(C#N)C(=O)NC(c3ccc(OCCCC(F)(F)F)cc3)(C(F)(F)F)C2)cc1Cl` (stereo not drawn) [Example 263], the IC50 came out at 103 nM.
The figure for `Cc1ccc(C2=C(C(=O)Nc3nn[nH]n3)C(=O)NC(c3ccc(OCCC(F)(F)F)cc3)(C(F)(F)F)C2)cc1` (stereo not drawn) [Example 125] is 282 nM; for `O=C1NC(c2ccc(OCCCCCC(F)(F)F)cc2)(C(F)(F)F)CC(c2ccc(OCC(F)F)cc2)=C1c1nn[nH]n1` (stereo not drawn) [Example 248] it is 8 nM; for `Cc1ccc(NC(=O)C2=C(c3ccc(C)cc3)C(F)(F)C(c3ccc(OCCC(F)(F)F)cc3)(C(F)(F)F)NC2=O)cc1` (stereo not drawn) [Example 135] it is 778 nM.
As to `Cc1ccc(C2=C(C#N)C(=O)NC(c3ccc(OCCCC(F)(F)F)cc3)(C(F)(F)F)C2)cc1F` (stereo not drawn) [Example 256], the IC50 stood at 22 nM.
Under `O=C1NC(c2ccc(OCCCCCC(F)(F)F)cc2F)(C(F)(F)F)CC(c2ccc3ccccc3c2)=C1c1nn[nH]n1` (stereo not drawn) [Example 276] stands 2 nM.
